{"source": "patent US20150105252A1", "about": "“SUBSTITUTED PYRAZOLES AS HERBICIDES” (E I DU PONT DE NEMOURS AND COMPANY, priority 2013, published 2015)", "key": {"[1]": {"tested_on": "foxtail, giant", "test": "Test A preemergence", "assay_type": "in vivo, Setaria faberii", "settings": "0 to 100 scale", "in_short": "(§1)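 Injury readout: eye-scored versus untreated controls, 0 to 100. Exposure period: ~10 days, greenhouse. Application: soil-directed spray over sown seed (pre) or spray on seedlings 2–10 cm tall with one or two leaves (post), compound carried in non-phytotoxic solvent including surfactant.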"}, "[2]": {"tested_on": "velvetleaf", "test": "Test A preemergence", "assay_type": "in vivo, Abutilon theophrasti", "settings": "0 to 100 scale", "in_short": "as §1"}, "[3]": {"tested_on": "corn", "test": "Test A preemergence", "assay_type": "in vivo, Zea mays", "settings": "0 to 100 scale", "in_short": "as §1"}, "[4]": {"tested_on": "pigweed", "test": "Test A postemergence", "assay_type": "in vivo, Amaranthus retroflexus", "in_short": "as §1"}, "[5]": {"tested_on": "velvetleaf", "test": "Test A postemergence", "assay_type": "in vivo, Abutilon theophrasti", "in_short": "as §1"}, "[6]": {"tested_on": "wheat", "test": "Test C preemergence", "assay_type": "in vivo, Triticum aestivum", "from_the_text": "(§2) Seeds of plant species selected from blackgrass (Alopecurus myosuroides), ryegrass, Italian (Italian ryegrass, Lolium multiflorum), wheat (winter wheat, Triticum aestivum), galium (catchweed bedstraw, Galium aparine), corn (Zea mays), crabgrass, large (large crabgrass, Digitaria sanguinalis), foxtail, giant (giant foxtail, Setaria faberii), johnsongrass (Sorghum halepense), lambsquarters (Chenopodium album), morningglory (Ipomoea coccinea), nutsedge, yellow (yellow nutsedge, Cyperus esculentus), pigweed (redroot pigweed, Amaranthus retroflexus), ragweed (common ragweed, Ambrosia elation), soybean (Glycine max), barnyardgrass (Echinochloa crus-galli), oilseed rape (Brassica napus), waterhemp (common waterhemp, Amaranthus rudis), oat, wild (wild oat, Avena fatua), kochia (Kochia scoparia), Surinam grass (Brachiaria decumbens), foxtail, green (green foxtail, Setaria viridis), goosegrass (Eleusine indica), bromegrass, downy (downy bromegrass, Bromus tectorum), nightshade (eastern black nightshade, Solanum ptycanthum), cocklebur (common cocklebur, Xanthium strumarium), cupgrass, woolly (woolly cupgrass, Eriochloa villosa), bermudagrass (Cynodon dactylon), sunflower, (common oilseed sunflower, Helianthus annuus), Russian thistle (Salsola kali), and velvetleaf (Abutilon theophrasti) were planted into a blend of loam soil and sand and treated preemergence with test chemicals formulated in a non-phytotoxic solvent mixture which included a surfactant.\n(§3) At the same time, plants selected from these crop and weed species and also chickweed (common chickweed, Stellaria media), canarygrass (littleseed canarygrass, Phalaris minor), and deadnettle (henbit deadnettle, Lamium amplexicaule), were planted in pots containing Redi-Earth® planting medium (Scotts Company, 14111 Scottslawn Road, Marysville, Ohio 43041) comprising spaghnum peat moss, vermiculite, wetting agent and starter nutrients and treated with postemergence applications of test chemicals formulated in the same manner. Plants ranged in height from 2 to 18 cm (1- to 4-leaf stage) for postemergence treatments. Treated plants and controls were maintained in a greenhouse for 13 to 15 days, after which time all species were compared to controls and visually evaluated. Plant response ratings, summarized in Table C, are based on a scale of 0 to 100 where 0 is no effect and 100 is complete control. A dash (-) response means no test result."}, "[7]": {"tested_on": "crabgrass, large", "test": "Test C preemergence", "assay_type": "in vivo, Digitaria sanguinalis", "from_the_text": "as §2, §3"}, "[8]": {"tested_on": "velvetleaf", "test": "Test C preemergence", "assay_type": "in vivo, Abutilon theophrasti", "from_the_text": "as §2, §3"}, "[9]": {"tested_on": "wheat", "test": "Test C postemergence", "assay_type": "in vivo, Triticum aestivum", "settings": "postemergence; for Wheat plant response rating: 62 g ai/ha, scale 0 to 100", "from_the_text": "as §2, §3"}, "[10]": {"tested_on": "johnsongrass", "test": "Test C postemergence", "assay_type": "in vivo, Sorghum halepense", "settings": "for Johnsongrass plant response rating: Postemergence, 31 g ai/ha, scale 0 to 100; for Plant response rating, Johnsongrass: postemergence", "from_the_text": "as §2, §3"}, "[11]": {"tested_on": "lambsquarters", "test": "Test C postemergence", "assay_type": "in vivo, Chenopodium album", "settings": "for Lambsquarters plant response rating: Postemergence, 31 g ai/ha, scale 0 to 100; for Plant response rating, Lambsquarters: postemergence", "from_the_text": "as §2, §3"}, "[12]": {"tested_on": "velvetleaf", "test": "Test C postemergence", "assay_type": "in vivo, Abutilon theophrasti", "settings": "postemergence; for Velvetleaf plant response rating: 62 g ai/ha, scale 0 to 100", "from_the_text": "as §2, §3"}, "[13]": {"settings": "Preemergence, 500 g ai/ha, 0 no effect, 100 complete control"}, "[14]": {"settings": "preemergence, 125 g ai/ha, visual injury, approx. 10 days"}, "[15]": {"settings": "Postemergence, 500 g ai/ha, visual rating after approx. 10 days, 0 to 100 scale (0 no effect, 100 complete control)"}, "[16]": {"settings": "postemergence, 125 g ai/ha, about 10 days, visual rating on 0 to 100 scale (0 no effect, 100 complete control)"}, "[17]": {"settings": "preemergence, 31 g ai/ha, scale 0 to 100 (0 no effect, 100 complete control), 13 to 15 days"}, "[18]": {"settings": "preemergence, 62 g ai/ha, 13 to 15 days, scale 0 to 100, 0 = no effect, 100 = complete control"}, "[19]": {"settings": "preemergence, 125 g ai/ha, scale 0 to 100, 0 is no effect, 100 is complete control"}, "[20]": {"settings": "250 g ai/ha, scale 0 to 100 (0 no effect, 100 complete control)"}, "[21]": {"settings": "125 g ai/ha, scale 0 to 100, 0 no effect, 100 complete control"}, "[22]": {"settings": "62 g ai/ha, scale 0 to 100, 0 no effect, 100 complete control"}, "[23]": {"settings": "Preemergence, 1000 g ai/ha, 0 no effect, 100 complete control"}, "[24]": {"settings": "Postemergence, 1000 g ai/ha, visual rating after approx. 10 days, 0 to 100 scale (0 no effect, 100 complete control)"}}, "data": [{"compound": "CCc1cc(C(=O)NOC(C)C)nn1Cc1cccc(OC(F)(F)F)c1", "note": "[Compound 70]", "values": [{"measurement": "Foxtail, Giant plant response rating", "setting": "[1]; [13]", "value": 100}, {"measurement": "Foxtail, Giant plant response rating", "setting": "[1]; [14]", "value": 90}, {"measurement": "Velvetleaf plant response rating", "setting": "[2]; [13]", "value": 80}, {"measurement": "Velvetleaf plant response rating", "setting": "[2]; [14]", "value": 40}, {"measurement": "Corn plant response rating", "setting": "[3]; [13]", "value": 80}, {"measurement": "Corn plant response rating", "setting": "[3]; [14]", "value": 50}, {"measurement": "Pigweed plant response rating", "setting": "[4]; [15]", "value": 100}, {"measurement": "Pigweed plant response rating", "setting": "[4]; [16]", "value": 90}, {"measurement": "Velvetleaf plant response rating", "setting": "[5]; [15]", "value": 90}, {"measurement": "Velvetleaf plant response rating", "setting": "[5]; [16]", "value": 80}, {"measurement": "Plant response rating (scale of 0 to 100), Wheat", "setting": "[6]; Preemergence, 250 g ai/ha", "value": 75}, {"measurement": "Wheat plant response rating", "setting": "[6]; [17]", "value": 5}, {"measurement": "Plant response rating, Wheat", "setting": "[6]; [18]", "value": 10}, {"measurement": "Wheat plant response rating", "setting": "[6]; [19]", "value": 65}, {"measurement": "Plant response rating (scale of 0 to 100), Crabgrass, Large", "setting": "[7]; Preemergence, 250 g ai/ha", "value": 100}, {"measurement": "Crabgrass, Large plant response rating", "setting": "[7]; [17]", "value": 95}, {"measurement": "Plant response rating, Crabgrass, Large", "setting": "[7]; [18]", "value": 98}, {"measurement": "Crabgrass, Large plant response rating", "setting": "[7]; [19]", "value": 98}, {"measurement": "Plant response rating (scale of 0 to 100), Velvetleaf", "setting": "[8]; Preemergence, 250 g ai/ha", "value": 100}, {"measurement": "Velvetleaf plant response rating", "setting": "[8]; [17]", "value": 20}, {"measurement": "Plant response rating, Velvetleaf", "setting": "[8]; [18]", "value": 60}, {"measurement": "Velvetleaf plant response rating", "setting": "[8]; [19]", "value": 75}, {"measurement": "Wheat plant response rating", "setting": "[9]", "value": 15}, {"measurement": "Plant response rating, Wheat", "setting": "[9]; [20]", "value": 25}, {"measurement": "Plant response rating, Wheat", "setting": "[9]; [21]", "value": 20}, {"measurement": "Johnsongrass plant response rating", "setting": "[10]", "value": 0}, {"measurement": "Plant response rating, Johnsongrass", "setting": "[10]; [20]", "value": 75}, {"measurement": "Plant response rating, Johnsongrass", "setting": "[10]; [22]", "value": 0}, {"measurement": "Plant response rating, Johnsongrass", "setting": "[10]; [21]", "value": 10}, {"measurement": "Lambsquarters plant response rating", "setting": "[11]", "value": 75}, {"measurement": "Plant response rating, Lambsquarters", "setting": "[11]; [20]", "value": 98}, {"measurement": "Plant response rating, Lambsquarters", "setting": "[11]; [22]", "value": 95}, {"measurement": "Plant response rating, Lambsquarters", "setting": "[11]; [21]", "value": 95}, {"measurement": "Velvetleaf plant response rating", "setting": "[12]", "value": 20}, {"measurement": "Plant response rating, Velvetleaf", "setting": "[12]; [20]", "value": 55}, {"measurement": "Plant response rating, Velvetleaf", "setting": "[12]; [21]", "value": 30}]}, {"compound": "CCCNC(=O)c1cc(CC)n(Cc2cccc(OC(F)(F)F)c2)n1", "note": "[Compound 27]", "values": [{"measurement": "Foxtail, Giant plant response rating", "setting": "[1]; [23]", "value": 90}, {"measurement": "Velvetleaf plant response rating", "setting": "[2]; [23]", "value": 30}, {"measurement": "Corn plant response rating", "setting": "[3]; [23]", "value": 30}, {"measurement": "Pigweed plant response rating", "setting": "[4]; [24]", "value": 70}, {"measurement": "Velvetleaf plant response rating", "setting": "[5]; [24]", "value": 100}, {"measurement": "Wheat plant response rating", "setting": "[9]", "value": 15}, {"measurement": "Plant response rating, Wheat", "setting": "[9]; [20]", "value": 20}, {"measurement": "Plant response rating, Wheat", "setting": "[9]; [21]", "value": 15}, {"measurement": "Johnsongrass plant response rating", "setting": "[10]", "value": 0}, {"measurement": "Plant response rating, Johnsongrass", "setting": "[10]; [20]", "value": 5}, {"measurement": "Plant response rating, Johnsongrass", "setting": "[10]; [22]", "value": 0}, {"measurement": "Plant response rating, Johnsongrass", "setting": "[10]; [21]", "value": 5}, {"measurement": "Lambsquarters plant response rating", "setting": "[11]", "value": 50}, {"measurement": "Plant response rating, Lambsquarters", "setting": "[11]; [20]", "value": 65}, {"measurement": "Plant response rating, Lambsquarters", "setting": "[11]; [22]", "value": 50}, {"measurement": "Plant response rating, Lambsquarters", "setting": "[11]; [21]", "value": 50}, {"measurement": "Velvetleaf plant response rating", "setting": "[12]", "value": 15}, {"measurement": "Plant response rating, Velvetleaf", "setting": "[12]; [20]", "value": 45}, {"measurement": "Plant response rating, Velvetleaf", "setting": "[12]; [21]", "value": 20}]}, {"compound": "CCc1cc(C(=O)NCC(F)(F)F)nn1Cc1cccc(OC(F)(F)F)c1", "note": "[Compound 20]", "values": [{"measurement": "Foxtail, Giant plant response rating", "setting": "[1]; [23]", "value": 100}, {"measurement": "Velvetleaf plant response rating", "setting": "[2]; [23]", "value": 70}, {"measurement": "Corn plant response rating", "setting": "[3]; [23]", "value": 20}, {"measurement": "Pigweed plant response rating", "setting": "[4]; [24]", "value": 100}, {"measurement": "Velvetleaf plant response rating", "setting": "[5]; [24]", "value": 90}, {"measurement": "Wheat plant response rating", "setting": "[9]", "value": 15}, {"measurement": "Plant response rating, Wheat", "setting": "[9]; [20]", "value": 25}, {"measurement": "Plant response rating, Wheat", "setting": "[9]; [21]", "value": 20}, {"measurement": "Johnsongrass plant response rating", "setting": "[10]", "value": 0}, {"measurement": "Plant response rating, Johnsongrass", "setting": "[10]; [20]", "value": 10}, {"measurement": "Plant response rating, Johnsongrass", "setting": "[10]; [22]", "value": 0}, {"measurement": "Plant response rating, Johnsongrass", "setting": "[10]; [21]", "value": 5}, {"measurement": "Lambsquarters plant response rating", "setting": "[11]", "value": 60}, {"measurement": "Plant response rating, Lambsquarters", "setting": "[11]; [20]", "value": 75}, {"measurement": "Plant response rating, Lambsquarters", "setting": "[11]; [22]", "value": 60}, {"measurement": "Plant response rating, Lambsquarters", "setting": "[11]; [21]", "value": 65}, {"measurement": "Velvetleaf plant response rating", "setting": "[12]", "value": 45}, {"measurement": "Plant response rating, Velvetleaf", "setting": "[12]; [20]", "value": 60}, {"measurement": "Plant response rating, Velvetleaf", "setting": "[12]; [21]", "value": 45}]}]}
